Results: patent US11690813B2, “Aminothiol reduction of ischemia-reperfusion-induced cell death” (OBVIA PHARMACEUTICALS LTD, priority 2018, dated 2023)
Values joined by “and” are separate entries in the source; they are usually repeats but may differ in a detail not shown here. Equal entries are not always repeated. Where two headings read alike, the source gives them in different places.

Assays:
[1] = humans; cited from earlier work
[2] = rat, in vivo
irradiated skin = format: in vivo, rat
[3] = in vivo
pUC19 plasmid DNA [4] = format: biochemical
human blood lymphocytes = format: cell-based
[5] = test system: Caspase 3 and 7 activity in kidney homogenate supernates; details: mouse, in vivo, ip
[6] = mouse, in vivo
pUC19 plasmid DNA [7] = experiment: x-irradiation ROS-induced nicking of pUC19 plasmid DNA; format: biochemical
[8] = design: species or system mice; details: mouse, in vivo
physchem = details: buffer, pH 7.2
cardiac muscle = details: mouse, in vivo, ip
[9] = test system: primary neonate cardiac myocytes; format: cell-based, mice
[10] = test system: serum blood urea nitrogen (BUN); details: mouse, in vivo, ip
[11] = mouse, in vivo; remark: listed apart in the source
[12] = rats; cited from earlier work
[13] = added 15 min before 90 Gy x-irradiation over 30 min

In the case of `NCCCNCCSP(=O)(O)O` [Amifostine, amifostine], the hypotension/fainting side effects [1] is given as “hypotension/fainting side effects”, the nausea/emesis side effects [1] is given as “severe nausea/emesis side effects” and the “blood pressure response to challenge dose of IP epinephrine after drug” value [2] is given as “no discernible effect upon blood pressure”. The “effect on blood pressure” value ([2]; ip) was “immediate and irreversible drop in blood pressure”, the “ocular toxicity associated with chronic hypotension” value ([2]; ip) was “discernible ocular phenotype/toxicity” and the “Ionizing Radiation-ROS-Induced Dermatitis (% Clear Skin)” value (irradiated skin; Topical 100 mM, day 13) was 0 % Clear Skin. For the same compound, the “retching and emesis responses” value [3] was “significant bouts of both retching and emesis”.
For `CNCC(CS)CNC` [PrC-210], the “suppression of .OH-induced ROS DNA damage” value (pUC19 plasmid DNA [4]) was “complete suppression”, the “half-life of the thiol” value (buffer, pH 7.2) was 3.5 h and the “conversion to disulfide form” value (pH 6) was “no discernible conversion”. The “suppression of γ-H2AX foci formation” value (human blood lymphocytes) was “highly significant”, the “reduction in level of kidney caspase” value [5] was 84% and the “reduction in level of kidney caspase at 0.24 MTD” value [5] was “highly significant reductions”. For the same compound, the “reduction in level of kidney caspase over dose range” value [5] was “dose-dependent reduction”, the “IP maximum tolerated dose (MTD)” value [6] was 504 ug/gm body weight and the “suppression of ROS-induced damage to plasmid DNA” value (“suppression of ROS-induced damage” below) (pUC19 plasmid DNA [7]) was “dose-dependent suppression”. For the same compound, the “suppression of pUC19 DNA damage” value (pUC19 plasmid DNA [7]) was 90%, the “suppression of radiation-induced death” value [8] was “complete suppression” and the “survival against otherwise 100% lethal dose of radiation” value [8] was 100%. For the same compound, the half-life (physchem) was 3.5 h, the “reduction in percentage of total cardiac muscle stained as dead-tissue” value (cardiac muscle) was 36% and the “blood pressure response to challenge dose of IP epinephrine after drug” value [2] was “robust increase in blood pressure”. For the same compound, the “effect on blood pressure” value ([2]; ip) was “no reduction in blood pressure”, the “H2O2-induced cell death eliminated” value [9] was about 80% and the “Ionizing Radiation-ROS-Induced Dermatitis (% Clear Skin)” value (irradiated skin; rat, in vivo) was 100 % Clear Skin. The “Ionizing Radiation-ROS-Induced Dermatitis (% Clear Skin)” value (irradiated skin; rat, in vivo, ip) was 100 % Clear Skin, the “retching and emesis responses” value ([3]; ferret) was “none of the 10 ferrets” and the “reduction in serum blood urea nitrogen (BUN) level” value [10] was “like reduction”. For the same compound, the “PrC-210 thiol blood concentration” value [11] was 3 mM and the “plasma/blood concentrations of PrC-210 thiol associated with protection” value [11] was 1 to 3 mM.
For `NCC(CN)CS` [PrC-211], the “reduction in level of kidney caspase at 0.24 MTD” value [5] was “highly significant reductions”, the “IP maximum tolerated dose (MTD)” value [6] was 500 ug/gm body weight and the “Ionizing Radiation-ROS-Induced Dermatitis (% Clear Skin)” value (irradiated skin; rat, in vivo) was 55 % Clear Skin and 100 % Clear Skin. The “Ionizing Radiation-ROS-Induced Dermatitis (% Clear Skin)” value (irradiated skin; rat, in vivo, ip) was 87 % Clear Skin.
For `NCCCNCCS` [WR-1065, reference compound], the “suppression of ROS-induced damage” value (pUC19 plasmid DNA [7]; [13]) is listed as “dose-dependent suppression” and the hypotension side effects [12] is listed as “hypotension side effects”.
With `NCCS` [cysteamine, reference compound] the “suppression of ROS-induced damage” value (pUC19 plasmid DNA [7]; [13]) was “dose-dependent suppression”.
For `CN(C)C(=O)C(CCN1CCC(O)(c2ccc(Cl)cc2)CC1)(c1ccccc1)c1ccccc1` [loperamide], the “retching and emesis responses” value [3] was “strong retch and emesis responses”.
